Source: ChEMBL document CHEMBL1130483, “The synthesis and evaluation of functionalized estratropones: Potent inhibitors of tubulin polymerization” (Bioorg Med Chem Lett, 1997)

What follows are molecules tested against Tubulin (Bos taurus, UniProt Q6B856+Q862L2+Q862F3) (assay: Compound was evaluated for inhibition of tubulin polymerization using purified bovine brain tubulin, activity expressed as IC50).
Type: functional, tissue-based

| SMILES | IC50 |
| --- | --- |
| C[C@]12CC[C@@H]3c4cc(O)c(=O)ccc4CC[C@H]3[C@@H]1CC[C@@H]2O | 14.9 µM |
| C/N=c1/cc2c(ccc1O)[C@H]1CC[C@]3(C)[C@@H](O)CC[C@H]3[C@@H]1CC2 | 19.4 µM |
| C[C@]12CC[C@@H]3c4ccc(=N)c(O)cc4CC[C@H]3[C@@H]1CC[C@@H]2O | 14.4 µM |
| C/N=c1\ccc2c(cc1O)CC[C@@H]1[C@@H]2CC[C@]2(C)[C@@H](O)CC[C@@H]12 | 60.7 µM |
| C[C@]12CC[C@@H]3c4ccc([N+](=O)[O-])c(=O)cc4CC[C@H]3[C@@H]1CC[C@@H]2O | 52 µM |

Other lines, results leading:

| IC50 | SMILES |
| --- | --- |
| 14.3 µM | CN(C)c1ccc2c(cc1=O)CC[C@@H]1[C@@H]2CC[C@]2(C)[C@@H](O)CC[C@@H]12 |
| 9.2 µM | C[C@]12CC[C@@H]3c4ccc(=O)c(N)cc4CC[C@H]3[C@@H]1CC[C@@H]2O |
| 46.8 µM | CN(C)c1cc2c(ccc1=O)[C@H]1CC[C@]3(C)[C@@H](O)CC[C@H]3[C@@H]1CC2 |
| 16.5 µM | C[C@]12CC[C@@H]3c4cc(N)c(=O)ccc4CC[C@H]3[C@@H]1CC[C@@H]2O |
| 22.8 µM | C[C@]12CC[C@@H]3c4ccc(=O)c(O)cc4CC[C@H]3[C@@H]1CC[C@@H]2O |
| 14.2 µM | C=Cc1ccc2c(cc1=O)CC[C@@H]1[C@@H]2CC[C@]2(C)[C@@H](O)CC[C@@H]12 |
